According to patent US20240150301A1, “METHODS OF MODULATING ANDROGEN RECEPTOR CONDENSATES” (ETERN BIOPHARMA (SHANGHAI) CO., LTD., priority 2021, published 2024):
“Also recorded” adds a separate entry of the source.

How the values were obtained:
LNCaP cells = assay: Cell proliferation assay (CellTiter-Glo), LNCaP; assay type: cell-based; settings: Homo sapiens, 96 h, 0.2 nM DHT, 4 days, read-out: LNCaP IC50 AR-positive (cell proliferation)
Procedure: (§1) To evaluate the effect of exemplary compounds on proliferation of AR/AR-V7-dependent prostate cancer cells, cell viability assay was performed in LNCaP (AR-positive), 22Rv1 (AR-positive; AR-V7 positive), VCaP (AR-positive; AR-V7 positive), and DU145 (AR-negative) cells, respectively.
(§2) LNCaP cells were seeded in charcoal stripped FBS/phenol red-free RPMI medium in 96-well plates for 24 h before pretreating for 1 h with test compounds prior to addition of 0.2 nM DHT for 4 days. 22Rv1 or VCaP cells were cultured in charcoal stripped FBS/phenol red-free RPMI medium for 24 h before addition of test compounds for 4 days. DU145 cells were seeded in complete medium for 24 h before addition of test compounds for 4 days. Cell proliferation was measured with CellTiter-Glo® Luminescent Cell Viability Assay (Promega). In LNCaP cells, DHT-dependent cell growth is calculated by measuring the difference between vehicle control (DMSO) cells treated with or without 0.2 nM DHT. The IC50 values were determined using the four parameter fit via GraphPad Prism graphing software.

22Rv1 cells = assay: Cell proliferation assay (CellTiter-Glo), 22Rv1; assay type: cell-based; settings: Homo sapiens, 22Rv1, 96 h; 4 days; read-out: 22Rv1 IC50 AR-positive; AR-V7 positive (cell proliferation)
Procedure: as §1, §2

DU145 cells = assay: Cell proliferation assay (CellTiter-Glo), DU145; assay type: cell-based; settings: Homo sapiens, DU-145, 96 h; 4 days; read-out: DU145 IC50 AR-negative (cell proliferation)
Procedure: as §1, §2

[1] = test system: AR or AR-V7 downstream target genes; assay: AR/AR-V7 target gene qPCR assay in 22Rv1 cells; assay type: cell-based, human; settings: 22Rv1, 48 h, RT-qPCR
Procedure: To evaluate the effect of exemplary compounds on mRNA expression of AR or AR-V7 downstream target genes, real-time quantitative PCR measurements were performed in prostate cancer cell line 22Rv1 expressing both AR and AR-V7.
22Rv1 cells were cultured in charcoal stripped FBS/phenol red-free RPMI medium for 24 h, and then treated with DMSO or test compounds for additional 48 h prior to RT-qPCR. Briefly, RNA was isolated from cells using RNeasy Mini Kit (Qiagen) following the manufacturer's protocol. RNA was reverse transcribed and subjected to qPCR using PowerUp™ SYBR™ Green Master Mix (Applied Biosystems). The relative quantity of the target genes was calculated using the ΔΔCt method by comparing Ct of the target genes and mean Ct of the housekeeping gene GAPDH.

AR = target: T1, AR (Homo sapiens, UniProt P10275); assay: Live-cell imaging of AR puncta (LLPS) in LNCaP cells, AR-mEGFP; assay type: cell-based; settings: 10 μM compound, 1 nM DHT
T1 construct: expressed in transfected cells; host or cells: LNCaP
T1 sequence (P10275 1-920): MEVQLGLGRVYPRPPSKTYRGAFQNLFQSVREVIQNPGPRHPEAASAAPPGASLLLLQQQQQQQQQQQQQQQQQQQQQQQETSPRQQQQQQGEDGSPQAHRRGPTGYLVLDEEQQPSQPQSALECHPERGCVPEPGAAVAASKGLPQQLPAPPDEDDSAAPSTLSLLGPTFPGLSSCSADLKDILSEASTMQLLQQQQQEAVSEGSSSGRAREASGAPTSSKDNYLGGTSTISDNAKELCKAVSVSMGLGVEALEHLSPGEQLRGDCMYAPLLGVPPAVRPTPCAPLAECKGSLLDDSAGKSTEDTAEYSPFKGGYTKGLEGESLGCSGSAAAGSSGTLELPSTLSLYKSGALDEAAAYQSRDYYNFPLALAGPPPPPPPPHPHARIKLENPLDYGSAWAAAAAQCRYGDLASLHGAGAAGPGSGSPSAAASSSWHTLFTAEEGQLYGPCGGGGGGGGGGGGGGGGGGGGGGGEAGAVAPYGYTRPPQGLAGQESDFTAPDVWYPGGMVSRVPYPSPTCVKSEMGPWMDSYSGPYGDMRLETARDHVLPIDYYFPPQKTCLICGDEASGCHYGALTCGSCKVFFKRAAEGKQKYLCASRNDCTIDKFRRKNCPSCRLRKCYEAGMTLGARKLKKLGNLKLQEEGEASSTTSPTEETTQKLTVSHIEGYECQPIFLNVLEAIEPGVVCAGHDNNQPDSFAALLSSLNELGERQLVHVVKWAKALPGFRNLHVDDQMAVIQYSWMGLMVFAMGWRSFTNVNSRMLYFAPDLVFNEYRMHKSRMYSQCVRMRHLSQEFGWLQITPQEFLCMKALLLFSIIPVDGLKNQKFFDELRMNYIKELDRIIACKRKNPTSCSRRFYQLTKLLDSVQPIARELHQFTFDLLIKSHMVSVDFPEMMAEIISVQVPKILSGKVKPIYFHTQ
Procedure: Cells were grown on 24-well glass bottom plate (Cellvis, P24-1.5H-N) and images were taken with the Leica TCS SP8 confocal microscopy system using a 100× oil objective (NA=1.4). Cells were imaged on a heated stage (37° C.) and supplemented with warmed (37° C.) humidified air. The microscope was enclosed in an incubation chamber heated to 37° C.
For compounds treatment assay, LNCaP cells were transfected with an expression vector for AR (AR or AR F877L/T878A)-mEGFP using steroid hormone-free and phenol red-free RPMI media for 24 hours before compound treatment. After 10 μM compounds treatment for 3 hour, LNCaP cells were added with 1 nM DHT. For ligand-independent AR V7-mEGFP expressing LNCaP cells, starvation step is skipped and compounds were added 12 hours after transfection. The final concentration of DMSO was 0.1%. Cells were subjected to microscopic observation every 30 mins after DHT/compounds were added.
Data was analyzed by images collected from 100 representative fields in each group. The spots quantification was performed based on the area and intensity of the spots through green (AR-mEGFP) channel. Fluorescent images were processed and assembled into figures using LAS X (Leica) and Fiji.
After 10 μM compounds treatment for 3 hour, LNCaP cells were added with 1 nM DHT. […]

VCaP cells = assay: Cell proliferation assay (CellTiter-Glo), VCaP; assay type: cell-based; settings: Homo sapiens, 96 h, 4 days, read-out: VCaP IC50 AR-positive, AR-V7 positive (cell proliferation)
Procedure: as §1, §2

SMILES | IC50 (LNCaP cells) | IC50 (22Rv1 cells) | IC50 (DU145 cells) | mRNA expression of target genes of either AR or AR-V7 [1] | puncta formation / LLPS of AR (AR) | IC50 (VCaP cells)
CC(C)(c1ccc(OCc2ccnc(N=S3(=O)CCNCC3)n2)cc1)c1cc(Cl)c(OCCCl)c(C#N)c1 [Compound 6, 3-chloro-2-(2-chloroethoxy)-5-(2-(4-((2-((1-oxido-1λ^6-thiomorpholin-1-ylidene)amino)pyrimidin-4-yl)methoxy)phenyl)propan-2-yl)benzonitrile] | 0.86 µM | 3.24 µM | > 20 µM | inhibited mRNA expression |  | 
CC(C)(c1ccc(C#Cc2cnc(NS(C)(=O)=O)nc2)cc1)c1cc(Cl)c(OCCCl)c(C#N)c1 [Compound 60, N-(5-((4-(2-(3-chloro-4-(2-chloroethoxy)-5-cyanophenyl)propan-2-yl)phenyl)ethynyl)pyrimidin-2-yl)methanesulfonamide] |  |  |  |  | could suppress the phase separation; also recorded: abolished the puncta formation | 
CC(C)(c1ccc(OCc2ccnc(NS(C)(=O)=O)n2)cc1)c1cc(Cl)c(OCCCl)c(C#N)c1 [Compound AA, N-(4-((4-(2-(3-chloro-4-(2-chloroethoxy)-5-cyanophenyl)propan-2-yl)phenoxy)methyl)pyrimidin-2-yl) methane sulfonamide, reference compound] | 7.01 µM | > 20 µM | 17.2 µM | inhibited mRNA expression |  | > 20 µM
